Experimental findings from patent US6838478B2, “Amino acid derivatives and their use as thrombin inhibitors” (AstraZeneca AB, priority 1996, dated 2005) are described below.

As a reminder, the IC50 is the concentration needed to halve the response being measured. Read a high IC50 as a need for much substance.

The target in this test is T1, Human thrombin (Homo sapiens, UniProt P00734).
T1 construct: purchased Sigma Chem Co T 6769
Kind of test: Test A: determination of thrombin clotting time (TT). It is filed as biochemical. Particulars: concentration of inhibitor that doubles the thrombin clotting time for human plasma. As for the experimental part:
Determination of Thrombin Clotting Time (TT)
Human thrombin (T 6769, Sigma Chem Co) in buffer solution, pH 7.4, 100 μI, and inhibitor solution, 100 μl, were incubated for one min. Pooled normal citrated human plasma, 100 μl, was then added and the clotting time measured in an automatic device (KC 10, Amelung).
The clotting time in seconds was plotted against the inhibitor concentration, and the IC50TT was determined by interpolation.
IC50TT is the concentration of inhibitor in the test that doubles the thrombin clotting time for human plasma.

In turn, `COc1cccc(C(CO)C(=O)N2CCCC2C(=O)NCc2ccc(C(N)=NO)cc2)c1` (single isomer, unassigned) [Example 13, (S)- or (R)-3-Methoxyphenyl-CH(CH2OH)—C(O)-Pro-Pab-OH] showed an IC50 of over 1 µM.
For `NC(=NO)c1ccc(CNC(=O)C2CCCN2C(=O)C(CO)c2ccccc2)cc1` [Example 8, (R,S)-Ph-CH(CH2OH)—C(O)-Pro-Pab-OH] the value was over 1 µM; for `COc1cccc(C(CO)C(=O)N2CCCC2C(=O)NCc2ccc(C(N)=NC(=O)OCc3ccccc3)cc2)c1` (single isomer, unassigned) [Example 10, (S)- or (R)-3-Methoxyphenyl-CH(CH2OH)CO-Pro-Pab(Z)], over 1 µM; for `COc1cccc(C(CO)C(=O)N2CCC2C(=O)NCc2ccc(C(N)=NO)cc2)c1` (single isomer, unassigned) [Example 9, (R)- or (S)-3-Methoxyphenyl-CH(CH2OH)—C(O)-Aze-Pab-OH], over 1 µM.
`CCC(=O)ON=C(N)c1ccc(CNC(=O)C2CCCN2C(=O)C(CO)c2cccc(OC)c2)cc1` (single isomer, unassigned) [Example 14, (S)- or (R)-3-Methoxyphenyl-CH(CH2OH)—C(O)-Pro-Pab-OC(O)Et] came in with an IC50 of over 1 µM.
Take `COCC(C)(C(=O)N1CCCC1C(=O)NCc1ccc(C(N)=NC(=O)OCc2ccccc2)cc1)c1ccccc1` [Example 40, (R,S)-Ph-C(Me)(CH2OMe)-C(O)-Pro-Pab(Z)]: the IC50 was over 1 µM.
